Reference: patent US6914045B2, “Glycopeptide antibiotics” (Wyeth Holdings Corporation, priority 2001, dated 2005)
Values after ≈ are worked out from the molar mass of the structure shown.

Experiments:
Assay in all cases: in vitro antibacterial evaluation, MIC by broth dilution
Assay type in all cases: cell-based
[1] = system: Enterococcus sp.; conditions: broth dilution, 18 hours at 35° C.
How it was run: (§1)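 MIC = lowest antibiotic concentration preventing visible growth; inoculum 5×10^5 CFU/mL; drug range 64-0.06 μg/mL; Muller-Hinton II […]; NCCLS M7-A2 guidance.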

[2] = system: Escherichia coli; conditions: 18 hours at 35° C.
How it was run: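 Step 1: dilute antibiotic across 64-0.06 μg/mL in Muller-Hinton II […]. Step 2: inoculate at 5×10^5 CFU/mL.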

[3] = system: Staphylococcus sp.; conditions: broth dilution, 18 hours at 35° C.
How it was run: as §1

[4] = system: Streptococcus sp.; conditions: broth dilution, 18 hours at 35° C.
How it was run: as §1

MIC Enterococcus avium (GC 4558) ([1]; Enterococcus avium (GC 4558)): 64 µg/mL (≈ 48.8 µM) | MIC Enterococcus faecalis (ATCC 29212) ([1]; Enterococcus faecalis (ATCC 29212)): >64 µg/mL | MIC Enterococcus faecalis (GC 4553) ([1]; Enterococcus faecalis (GC 4553)): >64 µg/mL | MIC Enterococcus faecalis (GC 4554) ([1]; Enterococcus faecalis (GC 4554)): >64 µg/mL | MIC Enterococcus faecalis (GC 6189) ([1]; Enterococcus faecalis (GC 6189)): >64 µg/mL | MIC Enterococcus faecium (GC 2243) ([1]; Enterococcus faecium (GC 2243)): >64 µg/mL | MIC Enterococcus faecium (GC 4556) ([1]; Enterococcus faecium (GC 4556)): >64 µg/mL | MIC Enterococcus faecium (GC 4557) ([1]; Enterococcus faecium (GC 4557)): 64 µg/mL (≈ 48.8 µM) | MIC Enterococcus faecalis (ATCC 29212) ([1]; strain ATCC 29212): >64 µg/mL | MIC Enterococcus faecalis (GC 2242) ([1]; strain GC 2242): >64 µg/mL | MIC Enterococcus faecium (GC 2243) ([1]; strain GC 2243): >64 µg/mL | MIC Enterococcus faecalis (GC 2691) ([1]; strain GC 2691): >64 µg/mL | MIC Enterococcus faecalis (GC 3059) ([1]; strain GC 3059): >64 µg/mL | MIC Enterococcus faecalis (GC 4552) ([1]; strain GC 4552): >64 µg/mL | MIC Enterococcus faecalis (GC 4553) ([1]; strain GC 4553): >64 µg/mL | MIC Enterococcus faecalis (GC 4554) ([1]; strain GC 4554): >64 µg/mL | MIC Enterococcus faecium (GC 4556) ([1]; strain GC 4556): >64 µg/mL | MIC Enterococcus faecium (GC 4557) ([1]; strain GC 4557): 64 µg/mL (≈ 48.8 µM) | MIC Enterococcus avium (GC 4558) ([1]; strain GC 4558): 64 µg/mL (≈ 48.8 µM) | MIC Enterococcus faecalis (GC 6189) ([1]; strain GC 6189): >64 µg/mL | MIC Escherichia coli (ATCC 25922) ([2]; Escherichia coli (ATCC 25922)): >64 µg/mL | MIC Escherichia coli (GC 4559) ([2]; Escherichia coli (GC 4559)): >64 µg/mL | MIC Escherichia coli (GC 4560) ([2]; Escherichia coli (GC 4560)): >64 µg/mL | MIC Coagulase Negative Staphylococcus (GC 4547) [3]: >64 µg/mL | MIC Coagulase Negative Staphylococcus (GC 4548) [3]: >64 µg/mL | MIC Coagulase Negative Staphylococcus (GC 4549) [3]: >64 µg/mL | MIC Coagulase Negative Staphylococcus (GC 4551) [3]: >64 µg/mL | MIC Coagulase Negative Staphylococcus (GC 6257) [3]: >64 µg/mL | MIC Staphylococcus aureus (ATCC 29213) [3]: >64 µg/mL | MIC Staphylococcus aureus (GC 1131) [3]: >64 µg/mL | MIC Staphylococcus aureus (GC 3051) [3]: >64 µg/mL | MIC Staphylococcus aureus (GC 3053) [3]: >64 µg/mL | MIC Staphylococcus aureus (GC 4541) [3]: >64 µg/mL | MIC Staphylococcus aureus (GC 4542) [3]: >64 µg/mL | MIC Staphylococcus aureus (GC 4544) [3]: >64 µg/mL | MIC Staphylococcus aureus (GC 4545) [3]: >64 µg/mL | MIC Staphylococcus aureus-SMITH (GC 4543) [3]: >64 µg/mL | MIC Staphylococcus aureus (ATCC 29213) ([3]; strain ATCC 29213): >64 µg/mL | MIC Staphylococcus aureus (GC 1131) ([3]; strain GC 1131): >64 µg/mL | MIC Staphylococcus aureus (GC 3051) ([3]; strain GC 3051): >64 µg/mL | MIC Staphylococcus aureus (GC 3053) ([3]; strain GC 3053): >64 µg/mL | MIC Staphylococcus aureus (GC 4541) ([3]; strain GC 4541): >64 µg/mL | MIC Staphylococcus aureus (GC 4542) ([3]; strain GC 4542): >64 µg/mL | MIC Staphylococcus aureus (GC 4544) ([3]; strain GC 4544): >64 µg/mL | MIC Staphylococcus aureus (GC 4545) ([3]; strain GC 4545): >64 µg/mL | MIC Coagulase Negative Staphylococcus (GC 4547) ([3]; strain GC 4547): >64 µg/mL | MIC Coagulase Negative Staphylococcus (GC 4548) ([3]; strain GC 4548): >64 µg/mL | MIC Coagulase Negative Staphylococcus (GC 4549) ([3]; strain GC 4549): >64 µg/mL | MIC Coagulase Negative Staphylococcus (GC 4551) ([3]; strain GC 4551): >64 µg/mL | MIC Coagulase Negative Staphylococcus (GC 6257) ([3]; strain GC 6257): >64 µg/mL | MIC Staphylococcus aureus-SMITH (GC 4543) ([3]; strain SMITH GC 4543): >64 µg/mL | MIC Streptococcus pneumoniae (ATCC 6301) ([4]; strain ATCC 6301): 64 µg/mL (≈ 48.8 µM) | MIC Streptococcus pneumoniae (GC 1894) ([4]; strain GC 1894): 64 µg/mL (≈ 48.8 µM) | MIC Streptococcus pyogenes (GC 4563) ([4]; strain GC 4563): >64 µg/mL | MIC Streptococcus agalactiae (GC 4564) ([4]; strain GC 4564): >64 µg/mL | MIC Streptococcus pneumoniae (GC 4565) ([4]; strain GC 4565): 64 µg/mL (≈ 48.8 µM)
SMILES: CC(c1ccccc1)C1NC(=O)CNC(=O)C(CO)NC(=O)C(C(O)C2CNC(=N)N2C2OC(CO)C(O)C(O)C2O)NC(=O)C(C(O)C2CNC(=N)N2)NC(=O)C(Cc2ccc(OC3OC(CO)C(OC4OC(CO)C(O)C(O)C4O)C(O)C3O)c(N)c2)NC1=O (stereo not drawn) [Example 287, Cyclo[glycyl-β-methylphenylalanyl-2-amino-O-(4-O-hexopyranosylhexopyranosyl)tyrosyl-3-(2-iminoimidazolidin-4-yl)seryl-3-(3-hexopyranosyl-2-iminoimidazolidin-4-yl)serylseryl]]
MIC Staphylococcus haemolyticus (GC 4546) [3]: >64 µg/mL | MIC Staphylococcus haemolyticus (GC 4546) ([3]; strain GC 4546): >64 µg/mL
